Test results: patent US20250236596A1, “HYDROXYLAMINE-BASED EGFR INHIBITORS FOR TREATMENT OF CANCER WITH BRAIN METASTASES” (University of Georgia Research Foundation, Inc., priority 2022, published 2025)

Key:
[1] = Metabolic stability in hepatocytes; format: in vitro ADME; settings: human and rat; result in words
Experimental: Assessment of the compounds metabolic stability in incubations containing liver microsomes and hepatocytes of human and rat using the compound depletion approach was performed by Pharmaron Inc. Compound 15 underwent additional stability evaluation in monkey and dog hepatocytes. Microsome stability was assessed in duplicate (n=2) in the presence and absence of NADPH with liver microsomes (0.5 mg/mL) from human (BD Gentest) and SD rat (BD Gentest). Compounds were incubated in liver microsomes at 1 μM and samples (30 μL) were taken at 0.5, 15, 30, 45 and 60 min time points for analysis by LC-MS/MS. Hepatocyte stability was assessed in duplicate (n=2) at a working cell density of 0.5×10^6 cells/mL with hepatocytes from human (BioIVT), SD rat (BioIVT), cynomolgous monkey (RILD) or beagle dog (BioIVT). Compounds were incubated in hepatocytes at 1 μM and samples (25 μL) were taken at 0.5, 15, 30, 60, 90 and 120 min time points for analysis by LC-MS/MS. The in vitro half-life and intrinsic clearances were determined as previously described.^19
In vitro half-life (in vitro t1/2) was determined from the slope value in: in vitro t1/2=−(0.693/k).
Where, k, was determined by linear regression of the natural logarithm of the remaining percentage of the parent drug vs incubation time curve.

[2] = biological target: CYP2C9 (Homo sapiens, UniProt P11712); test: Human CYP450 inhibition in human liver microsomes, CYP2C9; format: in vitro ADME; settings: pooled human liver microsomes, probe diclofenac (6 μM), 4′-hydroxylation
Experimental: Assessment of compound 15 was carried out at Pharmaron Inc. for its potential to inhibit cytochrome P450 (CYP) isoforms using human liver microsomes. The activities tested were CYP1A2-mediated phenacetin O-demethylation, CYP2C19-mediated (S)-mephenytoin 4′-hydroxylation, CYP2C9-mediated diclofenac 4′-hydroxylation, CYP2D6-mediated dextromethorphan O-demethylation and CYP3A4-mediated midazolam 1′-hydroxylation. Concentrations of substrates were phenacetin (40 μM), mephenytoin (50 μM), diclofenac (6 μM), dextromethorphan (2 μM) and midazolam (1 μM). Probe substrates phenacetin, mephenytoin and dextromethorphan were incubated at 37° for 20 min. Probe substrates diclofenac and midazolam were incubated at 37° for 5 min. […] The reactions were initiated by adding NADPH (1 mM final concentration) after a 5 min-preincubation and the assay was ran in duplicate (n=2). Samples were analyzed by UPLC-MS/MS.

Chain of CYP2C9 (P11712 whole entry, canonical isoform): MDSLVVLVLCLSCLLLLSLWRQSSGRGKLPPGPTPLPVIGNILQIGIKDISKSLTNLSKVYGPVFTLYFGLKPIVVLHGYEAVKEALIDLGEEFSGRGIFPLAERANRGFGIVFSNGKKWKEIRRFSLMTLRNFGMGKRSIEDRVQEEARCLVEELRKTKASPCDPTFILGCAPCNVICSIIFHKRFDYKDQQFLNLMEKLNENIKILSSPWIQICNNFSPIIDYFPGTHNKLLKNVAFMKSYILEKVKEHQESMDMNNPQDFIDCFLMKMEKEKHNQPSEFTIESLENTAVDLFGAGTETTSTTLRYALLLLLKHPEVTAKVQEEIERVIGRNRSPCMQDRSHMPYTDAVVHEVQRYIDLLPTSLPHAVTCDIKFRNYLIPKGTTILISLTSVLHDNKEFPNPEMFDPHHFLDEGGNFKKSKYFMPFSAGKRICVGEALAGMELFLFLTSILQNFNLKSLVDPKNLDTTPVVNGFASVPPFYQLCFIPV

With `COc1cc2ncnc(Nc3cccc(Cl)c3F)c2cc1OCCON1CCN(C)CC1` [Compound 15, N-(3-chloro-2-fluorophenyl)-7-methoxy-6-(2-((4-methylpiperazin-1-yl)oxy)ethoxy)quinazolin-4-amine] the stability in hepatocytes [1] was “good stability” and the IC50 at 5 min [2] was greater than 30 µM.
